Laboratory results published in paper PMC5881522, “Molecular Defects in Cardiac Myofilament Ca^2+-Regulation Due to Cardiomyopathy-Linked Mutations Can Be Reversed by Small Molecules Binding to Troponin” (Frontiers in Physiology, 2018).
Entries after “also recorded” stand apart in the source; their conditions may differ.

Tests used:
[1] = target: T1, tropomyosin E180G mutant-containing thin filaments (Homo sapiens, UniProt P19429+P45379+P63316); experiment: Single [Ca2+] in vitro motility assay screen for re-coupling; assay type: biochemical; conditions: for Coupling Difference (Initial Screen E180G): 100 μM compound, 0.037 μM Ca2+, difference between motility (%) in phosphorylated and unphosphorylated thin filaments, TPM1 E180G, >10% = re-coupling; for EC50: dose-response of % motility difference at 0.037 μM Ca2+, Hill fit
T1 construct: isolate troponin from 100 mg of donor heart tissue; from tissue; host or cells: troponin: human donor heart; tropomyosin: baculovirus/Sf9 (gift); actin: rabbit fast-twitch skeletal muscle
Description: (§1) Thin filaments were reconstituted with 10 nM rabbit skeletal or mouse cardiac muscle α-actin (labeled with TRITC phalloidin), tropomyosin (40–60 nM), and troponin (60 nM) to study Ca^2+-regulation of filament motility by the quantitative in vitro motility assay (IVMA) (Fraser and Marston, [1995]; Messer et al., [2007]). Thin filament movement over a bed of immobilized rabbit fast skeletal muscle heavy meromyosin (100 μg/ml) was compared in paired motility cells, in which troponin varied by a single factor (mutation, phosphorylation state, or treatment with drug). The temperature was set to 29°C. Filament movement was recorded and analyzed as previously described (Marston et al., [1996]), yielding two parameters, the fraction of filaments moving and the speed of moving filaments. Only the fraction of filaments motile is used in this study.
For drug screening, motility was measured with paired phosphorylated and unphosphorylated tropomyosin E180G mutant-containing thin filaments at a fixed 0.037 μM Ca^2+. Most assays were single measurements.
For the rapid screening of compounds, we devised a single Ca^2+ concentration assay. This is illustrated in Figures 2A,B for quercetin. The test system contains skeletal muscle actin, human sequence recombinant tropomyosin 1.1 containing the E180G HCM-associated mutation and human cardiac troponin from donor hearts in the phosphorylated and unphosphorylated form. At 0.037 μM Ca^2+ the filaments are about 40% motile irrespective of phosphorylation level whilst when quercetin is added the phosphorylated Ca^2+ activity curve shifts to the right and % motility at 0.037 μM Ca^2+ drops, whilst the unphosphorylated level is unchanged. We have set a difference between phosphorylated and unphosphorylated >10% as indicating re-coupling activity. This assay method can also be used to construct a dose-response curve as shown. We investigated compounds in 4 categories.
Figure 2 Single [Ca^2+] screen for re-coupling compounds. […] Solid lines, phosphorylated state; dotted lines, unphosphorylated state. Purple lines and points, E180G thin filaments; green lines and points, E180G thin filaments + Quercetin (B) Dose -response curve for quercetin recoupling activity measured at a constant concentration of 0.037 μM Ca^2+. INSET, kinetic analysis of dose response curve; difference between phosphorylated and unphosphorylated states is plotted against quercetin concentration. The Hill equation is fitted to the data, EC50 = 8 μM. (C,D) The effect of 100 μM drug treatment on the difference between % of motility of phosphorylated and unphosphorylated tropomyosin E180G mutant-containing thin filaments at 0.037 μM Ca^2+. (C) EGCG-related molecules (for structures 1–28 see Figure S1 and Table 1). (D) Silybin, related compounds and other HsP90 inhibitors and Ca^2+ desensitizers. The threshold for positive re-coupling was set at a 10% difference (dotted line).

wild-type thin filaments = target: T2, wild-type thin filaments (Homo sapiens, UniProt P19429+P45379+P63316); experiment: IVMA Ca2+-activation curves, wild-type thin filaments; assay type: biochemical; conditions: ratio of EC50 in presence and absence of compound, phosphorylated and unphosphorylated states
T2 construct: isolate troponin from 100 mg of donor heart tissue; from tissue; host or cells: troponin: human donor heart; actin: rabbit skeletal muscle
Description: as §1
The fraction motile was measured over a range of Ca^2+ concentrations to generate Ca^2+-activation curves. The data were fitted to the 4-variable Hill equation to yield a value for EC50 and nH. Most assays of the effect of compounds are single measurements.
EC50 for Ca2+ activation of phosphorylated and unphosphorylated thin filaments incorporating troponin from HCM and DCM tissue samples that are uncoupled was measured by in vitro motility assay in the presence and absence of 100 µM EGCG. […]

[2] = tested on: mutant-containing thin filaments; experiment: IVMA Ca2+-activation curves, collected uncoupled mutant thin filaments; assay type: biochemical; conditions: every uncoupling mutation tested; 100 μM EGCG
Description: as §1, with “Only the fraction of filaments motile is used in this study.” left out
(§2) The fraction motile was measured over a range of Ca^2+ concentrations to generate Ca^2+-activation curves. […]
We measured the Ca^2+ activation of contractility using an in vitro motility assay that measures the movement of reconstituted thin filaments over a bed of immobilized myosin heads. […] Thus, the effect of EGCG is independent of the mutation that induced uncoupling; in addition, both in man and cat, HCM cases were found where no mutation in sarcomeric genes was detected yet the thin filaments were uncoupled and they could also be re-coupled by EGCG (Bayliss et al., [2012]; Messer et al., [2016]). […]

[3] = tested on: isolated cardiomyocytes from ACTC E99K HCM transgenic mice; experiment: Lusitropic effect of dobutamine in isolated cardiomyocytes; assay type: cell-based; conditions: blunted in ACTC E99K mouse cardiomyocytes; preliminary experiments
Description: The main effect of uncoupling of the modulation of Ca^2+ sensitivity by TnI phosphorylation is the loss of the lusitropic response to beta adrenergic stimulation, which is usually accompanied by blunting of the whole physiological adrenergic response.

[4] = tested on: transgenic HCM mouse model; parameters: method as in Tadano et al., 2010; conditions: ref Tadano et al., 2010; cited from earlier work
[5] = target: T3, thin filaments containing TnC G159D (TNNC1 G159D, DCM) (Homo sapiens, UniProt P19429+P45379+P63316, G159D); experiment: IVMA Ca2+-activation curves, TNNC1 G159D; assay type: biochemical; conditions: phosphorylated and unphosphorylated TnC G159D thin filaments
T3 construct: TnC G159D mutant troponin was extracted from a mutant human heart sample; from tissue; host or cells: mutant human heart sample (troponin); rabbit skeletal muscle (actin)
Excerpt: Recombinant human sequence tropomyosin was a gift from Kristen Nowak and Elyshia MacNamara, University, Western Australia. Wild-type α-tropomyosin (Tpm1.1) and mutant E180G tropomyosin were expressed in a baculovirus/Sf9 system (Akkari et al., [2002]; Marston et al., [2013]). Skeletal muscle F-actin and myosin were isolated from rabbit fast-twitch skeletal muscle as previously described (Messer et al., [2007]). TnC G159D mutant troponin was extracted from a mutant human heart sample (Dyer et al., [2009]), E99K mutant cardiac actin was extracted from the E99K transgenic mouse heart (Song et al., [2013]).
Thin filaments were reconstituted with 10 nM rabbit skeletal or mouse cardiac muscle α-actin (labeled with TRITC phalloidin), tropomyosin (40–60 nM), and troponin (60 nM) to study Ca^2+-regulation of filament motility by the quantitative in vitro motility assay (IVMA) (Fraser and Marston, [1995]; Messer et al., [2007]). […] Filament movement was recorded and analyzed as previously described (Marston et al., [1996]), yielding two parameters, the fraction of filaments moving and the speed of moving filaments. […]
as §2

[6] = dose response of motile percentage, Figure S2B

Row | dose at which recoupling begins [1, 6] | dose of peak recoupling [1, 6] | Structure (SMILES) | Coupling Difference (Initial Screen E180G) [1] | EC50 [1] | effect on Ca2+-sensitivity of wild-type thin filaments, in words (wild-type thin filaments) | restoration of coupling in uncoupled thin filaments, in words [2] | lusitropic effect of dobutamine, in words [3] | impaired pump function due to diastolic dysfunction, in words [4] | effect on Ca2+-activation curves (desensitizer / re-coupler), in words [5]
1 |  |  | O=C(O[C@@H]1Cc2c(O)cc(O)cc2O[C@@H]1c1cc(O)c(O)c(O)c1)c1cc(O)c(O)c(O)c1 [EGCG, epigallocatechin-3 gallate] | 23.0% | 59 µM | significant desensitizer | restore the coupling | anomalous | restored the impaired pump function | 
2 | 50 µM | 100 µM | COc1cc([C@@H]2Oc3cc([C@H]4Oc5cc(O)cc(O)c5C(=O)[C@@H]4O)ccc3O[C@H]2CO)ccc1O [Silybin B] | 55% | 39 µM |  |  | restored |  | pure recoupler; also recorded: pure recoupling
